Experimental data taken from US5089623A, “Certain imidate insecticides” (Imperial Chemical Industries Plc, priority 1990, dated 1992).

Columns and labels:
Assay type in all cases: in vivo
[1] = system: Housefly [Musca domestica]; assay: Housefly insecticidal test (HF); conditions: per 25 female houseflies, 48 hours
[2] = system: Aster Leafhopper [Macrosteles fascifrens (Stal)]; assay: Aster leafhopper test (LH); conditions: adults/nymphs, 48 hours, percent in solution
[3] = system: Tobacco Budworm [Heliothis virescens (Fabricius)] eggs; assay: Tobacco budworm egg test (TBW-E); conditions: percent in solution
[4] = system: Cabbage Looper [Trichoplusia ni (Hubner)]; assay: Cabbage looper test (CL); conditions: second-instar larvae, 3-5 days, percent in solution
[5] = system: Maize weevil [Sitophilus Zeamais (Motschulsky)]; assay: Maize weevil test (MW); conditions: adult weevils, treated corn seeds, 48 hours, percent in solution
Procedure, shortened: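 Adult weevils (10) were placed with four corn seeds that had been dipped 2-3 s in compound dissolved in 50:50 acetone:water, then dried, and held at about 25° C. Mortality was scored at 48 h. LC50 was taken from dosage-mortality curves and expressed as percent compound in solution, from a 0.01% top concentration.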

Compound | LC50 HF [1] | LC50 LH [2] | LC50 TBW E [3] | LC50 CL [4] | LC50 MW [5]
CC(C)C(=Nc1ccc(F)c(Cl)c1)OCc1cccc(Nc2ccc(F)cc2)c1 [Compound 512] | 35 µg | > 0.05% | > 0.1% | 0.003% | > 0.01%
Cc1cc(N=C(OCc2ccc(F)c(Oc3ccc(F)cc3)c2)C(C)C)ccc1Br [Compound 359] | < 100 µg | 0.05% | 0.023% | > 0.1% | > 0.01%
C#CC(OC(=Nc1cccc(C(F)(F)F)c1)C(C)C)c1cccc(Oc2ccccc2)c1 (stereo not shown) [Compound 519] | 60 µg | > 0.05% | > 0.1% | 0.0037% | > 0.01%
Fc1ccc(N=C(OCc2cccc(Oc3ccccc3)c2)C(F)(F)C(F)(F)F)cc1Cl [Compound 117] | 55 µg | 0.0003% | > 0.1% | 0.006% | > 0.01%
CC(C)(C)C(=Nc1ccc(Cl)c(Cl)c1)OCc1cccc(Oc2ccccc2)c1 [Compound 25] | > 100 µg | > 0.05% | > 0.1% | 0.01% | > 0.01%
Cc1c(COC(=Nc2ccc(C(C)(C)C)cc2)C(C)C)cccc1-c1ccccc1 [Compound 536] | > 100 µg | > 0.05% | > 0.1% | < 0.1% | > 0.01%
CC(C)C(=Nc1cccc(C(F)(F)F)c1)OCc1cc(Oc2ccc(F)cc2)ccn1 [Compound 528] | 59.1 µg | > 0.05% | > 0.1% | 0.0075% | > 0.01%
CCC(=Nc1ccc(F)c(F)c1)OCc1coc(Cc2ccccc2)c1 [Compound 524] | 5.2 µg | > 0.05% | > 0.1% | > 0.1% | > 0.01%
CSc1ccc(Oc2cccc(COC(=Nc3ccc(F)c(Cl)c3)C(C)C)c2)cc1 [Compound 256] | > 100 µg | > 0.05% | 0.1% | 0.007% | > 0.01%
CC(C)C(=Nc1ccc2c(c1)OCO2)OCc1cccc(Oc2ccc(C(C)(C)C)cc2)c1 [Compound 367] | > 100 µg | > 0.05% | > 0.1% | < 0.1% | > 0.01%
CC(C)C(=Nc1ccc(F)c(Cl)c1)OCc1cc(Oc2ccc(Cl)cc2)ccn1 [Compound 516] | > 100 µg | > 0.05% | > 0.1% | 0.008% | > 0.01%
Cc1ccc(N=C(OCc2ccc(F)c(Oc3ccc(F)cc3)c2)C(C)C)cc1F [Compound 355] | < 100 µg | < 0.05% | > 0.1% | > 0.1% | > 0.01%
CC(C)C(=Nc1ccc(F)c(Cl)c1)OCc1cccc(Oc2ccc(F)c(F)c2)c1 [Compound 217] | 8 µg | > 0.05% | 0.015% | 0.00006% | 0.0084%
CC(C)C(=Nc1ccc([N+](=O)[O-])cc1)OCc1coc(Cc2ccccc2)c1 [Compound 539] | 22 µg | > 0.05% | > 0.1% | > 0.1% | > 0.01%
CCc1ccc(N=C(OCc2ccc(F)c(Oc3ccc(F)cc3)c2)C(C)C)cc1 [Compound 361] | < 100 µg | < 0.05% | 0.04% | 0.001% | > 0.01%
Cc1ccc(N=C(OCc2ccc(F)c(Oc3ccc(F)cc3)c2)C(C)C)cc1Cl [Compound 357] | < 100 µg | < 0.05% | > 0.1% | > 0.1% | 0.01%

Compound | LC50 HF [1] | LC50 LH [2] | LC50 TBW E [3] | LC50 CL [4] | LC50 MW [5]
CSc1ccc(N=C(OCc2cccc(Oc3ccccc3)c2)C(C)C)cc1 [Compound 142] | 15 µg | > 0.05% | 0.1% | 0.005% | > 0.01%
Cc1cccc(N=C(OCc2cccc(Oc3ccc(Cl)cc3)n2)C(C)C)c1 [Compound 545] | < 100 µg | > 0.05% | > 0.1% | > 0.1% | > 0.01%
COc1cccc(N=C(OCc2cccc(Oc3ccccc3)c2)C(C)C)c1 [Compound 143] | 10 µg | 0.006% | < 0.1% | 0.002% | > 0.01%
CC(C)C(=Nc1ccc(Cl)c(Cl)c1)OCc1cccc(Nc2ccc(F)cc2)c1 [Compound 514] | > 100 µg | > 0.05% | > 0.1% | 0.008% | > 0.01%
C#CCc1c(F)c(F)c(COC(=Nc2cccc(C(F)(F)F)c2)C(C)C)c(F)c1F [Compound 546] | < 100 µg | < 0.05% | > 0.1% | 0.0001% | 0.0032%
CC(C)C(=Nc1cc(Cl)ccc1Cl)OCc1cccc(Oc2ccccc2)c1 [Compound 13] | > 100 µg | > 0.05% | > 0.1% | 0.014% | > 0.01%
CC(C)C(=Nc1cccc(C(F)(F)F)c1)OCc1cccc(Oc2ccc(Cl)cn2)c1 [Compound 518] | > 100 µg | > 0.05% | > 0.1% | 0.00075% | > 0.01%
CC(C)C(=Nc1ccc(Cl)c(C(F)(F)F)c1)OCc1cccc(Oc2ccc(F)cc2)c1 [Compound 193] | 100 µg | 0.001% | > 0.1% | 0.00075% | > 0.01%
CSc1ccc(Oc2cccc(COC(=Nc3ccc(F)cc3)C(C)C)c2)cc1 [Compound 257] | > 100 µg | > 0.05% | > 0.1% | 0.008% | 
Fc1ccc(N=C(OCc2cccc(Oc3ccccc3)c2)C(Cl)=C(Cl)Cl)cc1 [Compound 49] | > 100 µg | > 0.05% | > 0.05% | 0.007% | 
CCc1cccc(N=C(OCc2cccc(Oc3ccccc3)c2)C(C)C)c1 [Compound 154] | 25 µg | > 0.05% | 0.1% | 0.004% | 
CC(C)C(=Nc1ccc(C(C)C)cc1)OCc1cccc(Oc2ccc(F)cc2)c1 [Compound 228] | > 100 µg | > 0.05% | > 0.1% | 0.0025% | 
CC(C)C(=Nc1ccc2c(c1)CCC2)OCc1cccc(Oc2ccccc2)c1 [Compound 187] | 15 µg | 0.0025% | > 0.1% | 0.0025% | 
CC(C)C(=Nc1ccc(OC(F)(F)F)cc1)OCc1cccc(Cc2ccccc2)c1 [Compound 538] | 75 µg | > 0.05% |  | > 0.1% | > 0.01%
CC(C)C(=Nc1cc(Cl)cc(Cl)c1)OCc1cccc(Oc2ccccc2)c1 [Compound 16] | 20 µg | 0.0005% | 0.04% | 0.004% | 
